From patent US6121330A, “5-Hydroxyalkyl substituted phenyls and their use in medicaments for the treatment of arteriosclerosis and hyperlipoproteinaemia” (Bayer Aktiengesellschaft, priority 1997, dated 2000)

Columns and labels:
[1] = biological target: T1, cholesterol ester transfer protein (CETP) (Homo sapiens, UniProt P11597); experiment: CETP inhibition testing (transfer of 3H-cholesterol ester from human HD lipoproteins to biotinylated LD lipoproteins); type: biochemical; conditions: CETP partially purified from human plasma; 3H-cholesterol ester transfer HDL to biotin-LDL, 37° C., 18 h
T1 construct: CETP is obtained from human plasma in partially purified form by differential centrifugation and column chromatography; from tissue; host or cells: human plasma
T1 sequence (P11597 18-493): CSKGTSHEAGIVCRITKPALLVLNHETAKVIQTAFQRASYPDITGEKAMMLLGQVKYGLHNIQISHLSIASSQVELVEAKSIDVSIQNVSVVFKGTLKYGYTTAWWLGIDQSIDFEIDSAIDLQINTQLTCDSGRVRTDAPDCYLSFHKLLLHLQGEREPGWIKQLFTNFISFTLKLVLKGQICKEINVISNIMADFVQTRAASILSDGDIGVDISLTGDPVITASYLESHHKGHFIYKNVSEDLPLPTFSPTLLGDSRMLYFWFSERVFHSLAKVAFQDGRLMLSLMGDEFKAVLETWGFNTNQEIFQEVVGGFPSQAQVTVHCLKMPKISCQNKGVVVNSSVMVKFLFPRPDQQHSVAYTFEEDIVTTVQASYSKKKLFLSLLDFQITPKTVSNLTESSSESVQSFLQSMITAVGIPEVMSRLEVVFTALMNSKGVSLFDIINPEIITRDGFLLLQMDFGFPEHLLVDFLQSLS
Protocol: CETP is obtained from human plasma in partially purified form by differential centrifugation and column chromatography and used for the test. To this end, human plasma is adjusted to a density of 1.21 g per ml using NaBr and centrifuged at 4° C. for 18 h at 50,000 rpm. The bottom fraction (d>1.21 g/ml) is applied to a Sephadex®phenyl-sepharose 4B (Pharmacia) column, washed with 0.15 M NaCl/0.001 M trisHCl pH 7.4 and then eluted with distilled water. The CETP-active fractions are pooled, dialyzed against 50 mM Na acetate pH 4.5 and applied to a CM-Sepharose® (Pharmacia) column. The column is then eluted using a linear gradient (0-1 M NaCl). The pooled CETP fractions are dialyzed against 10 mM tris HCl pH 7.4 and then further purified by chromatography on a Mono Q® column (Pharmacia).
Obtainment of Radiolabelled HDL
50 ml of fresh human EDTA plasma is adjusted to a density of 1.12 using NaBr and centrifuged at 50,000 rpm for 18 h at 4° C. in a Ty 65 rotor. The upper phase is used to obtain cold LDL. The lower phase is dialyzed against 3×4 l of PDB buffer (10 mM tris/HCl pH 7.4, […], 1 mM EDTA, 0.02% NaN3). 20 μl of 3H-cholesterol (Dupont NET-725; 1 μC/μl dissolved in ethanol!) are then added per 10 ml of retentate volume and the mixture is incubated under N2 at 37° C. for 72 h. […]
To test the CETP activity, the transfer of ^3 H-cholesterol ester from human HD lipoproteins to biotinylated LD lipoproteins is measured.
The reaction is ended by addition of streptavidin-SPA® beads (Amersham) and the transferred radioactivity is determined directly in a liquid scintillation counter.
In the test mixture, 10 μl of HDL-^3 H-cholesterol ester (~50,000 cpm) are incubated at 37° C. for 18 h with 10 μl of biotin-LDL (Amersham) in 50 mM Hepes/0.15 M NaCl/0.1% bovine serum albumin/0.05% NaN3 pH 7.4 with 10 μl of CETP (1 mg/ml) and 3 μl of solution of the substance to be tested dissolved (in 10% DMSO/1% RSA). 200 μl of the SPA-streptavidin bead solution (TRKQ 7005) are then added, the mixture is incubated further for 1 h with shaking and then measured in the scintillation counter. […]

[2] = test system: HDL cholesterol; experiment: HDL rise in in vivo experiments (oral administration); design: species or system Syrian golden hamster; conditions: oral (stomach tube), 2 × 30 mg/kg/d
Protocol: In Vivo Activity of the Compounds According to the Invention
In experiments to determine the oral action on lipoproteins and triglycerides, test substance dissolved in DMSO and 0.5% Tylose suspended by means of a stomach tube are administered orally to Syrian golder hamsters from in-house breeding. To determine the CETP activity, blood (about 250 μl) is taken by retroorbital puncture before the start of the experiment. The test substances are then administered orally by means of a stomach tube. The control animals receive identical volumes of solvent without test substance. […]
Clotting is ended by incubation at 4° C. overnight, then centrifugation at 6000×g is carried out for 10 minutes. In the serum thus obtained, the content of cholesterol and triglycerides is determined with the aid of modified commercially available enzyme tests (cholesterol enzymatic 14366 Merck, triglycerides 14364 Merck). […]
100 μl of serum dilution are mixed with 100 μl of […] in 96-hole plates and incubated at room temperature for 10 minutes. The optical density is then determined at a wavelength of 492 nm using an automatic plate-reading apparatus. The triglyceride or cholesterol concentration contained in the samples is determined with the aid of a standard curve measured in parallel. […]

CC(C)c1cc(-c2ccc(F)cc2)c(CO)c(-c2ccc(F)cc2)c1C(F)c1ccc(C(F)(F)F)cc1 (stereo not shown) [Example 3]
IC50 [1]: 100 nM | % HDL rise [2]: 21%

OCc1c(-c2ccc(F)cc2)cc(C2CCCC2)c(C(F)c2ccc(C(F)(F)F)cc2)c1-c1ccc(F)cc1 (stereo not shown) [Example 1]
IC50 [1]: 90 nM

CC(C)c1cc(-c2ccc(F)cc2)c(CO)c(-c2ccc(F)cc2)c1C(=O)c1ccc(C(F)(F)F)cc1 [Example 4]
IC50 [1]: 4000 nM
